{"source": "patent US10449245B2", "about": "(priority 2014, dated 2019)", "key": {"[1]": {"tested_on": "HIV-1", "experiment": "Plasma HIV RNA quantitative viral load (Cobas TaqMan HIV-1 Test v2.0), REDUC Part A", "format": "in vivo, human", "conditions": "for HIV VL: individual subjects 1101, 1102, 1103, 1105, 1106, 1107 = c1-c6, romidepsin 5 mg/m^2 i.v. days 0, 7, 14", "method": "Part A of the clinical study contained three phases. […] Second, a viral reactivation phase of 3 weeks (visit 2 to visit 7) consisting of one cycle of romidepsin infusions at a dosing of 5 mg/m^2 administered intravenously over a 4 hour period. De-escalation down to 2.5 mg/m^2 was planned in case of dose-limiting toxicity was observed. Romidepsin was infused on days 0, 7, and 14. Third, a post-activation phase of ˜9 weeks (visit 8 to visit 11) to assess the effect of romidepsin on the size of latent HIV-1I reservoir.\nPlasma HIV RNA, quantitative viral load, was measured by Cobas® TaqMan® HIV-1 Test, v2.0 (Roche) according the manufacturer's instruction (routine clinical assay). The lower limit of quantification for this assay is 20 copies HIV-1 RNA/mL, but it provides a qualitative assessment below this."}, "[2]": {"tested_on": "HIV-1", "experiment": "Plasma HIV-1 RNA by transcription mediated amplification (TMA) NAT screen, REDUC Part A", "format": "in vivo, human", "conditions": "for TMA assay, Percent positive: share of subjects positive; for TMA assay, Percent positive / TMA assay, presence of HIV RNA: romidepsin 5 mg/m^2 i.v. days 0, 7, 14; for TMA assay, presence of HIV RNA: individual subjects 1101, 1102, 1103, 1105, 1106, 1107 = c1-c6"}, "[3]": {"conditions": "visit 1 (day −21, pre-treatment)"}, "[4]": {"conditions": "visit 2A (day 0, pre-treatment)"}}, "note": "Where “and” joins values, the source holds several entries; their conditions need not be identical. Equal entries are not always repeated.", "data": [{"smiles": "C/C=C1\\NC(=O)[C@H]2CSSCC/C=C/[C@H](CC(=O)N[C@H](C(C)C)C(=O)N2)OC(=O)[C@H](C(C)C)NC1=O", "note": "[romidepsin, (1S,4S,7Z,10S,16E,21R)-7-ethylidene-4,21-bis(1-methylethyl)-2-oxa-12,13-dithia-5,8,20,23-tetraazabicyclo[8.7.6]tricos-16-ene-3,6,9,19,22-pentone]", "values": [{"measurement": "extracellular HIV RNA, change", "setting": "[1]; as a result of romidepsin infusion", "value": "significantly increased"}, {"measurement": "plasma HIV-1 RNA", "setting": "[1]; at baseline", "value": "< 20", "unit": "copies/mL"}, {"measurement": "patients with plasma HIV-1 RNA increased to readily quantifiable levels", "setting": "[1]; at multiple post-infusion time-points", "value": "5 of 6"}, {"measurement": "plasma HIV-1 RNA", "setting": "[1]; range following the second infusion, standard clinical assay", "value": "46-103 copies/mL"}, {"measurement": "HIV VL", "setting": "[1]; [3]", "value": "LOQ (LOQ = “detectable” not quantifiable HIV RNA<20 c/mL) (3×) and 40 HIV RNA copies/mL plasma and LOD (2×)"}, {"measurement": "HIV VL", "setting": "[1]; [4]", "value": "LOD"}, {"measurement": "HIV VL", "setting": "[1]; visit 2B (day 0 + 4 h)", "value": "LOQ (LOQ = “detectable” not quantifiable HIV RNA<20 c/mL) and LOD (5×)"}, {"measurement": "HIV VL", "setting": "[1]; visit 3 (day 1)", "value": "26 HIV RNA copies/mL plasma and LOD (2×) and LOQ (LOQ = “detectable” not quantifiable HIV RNA<20 c/mL) (2×) and 27 HIV RNA copies/mL plasma"}, {"measurement": "HIV VL", "setting": "[1]; visit 4 (day 3)", "value": "LOQ (LOQ = “detectable” not quantifiable HIV RNA<20 c/mL) and 32 HIV RNA copies/mL plasma and LOD (4×)"}, {"measurement": "HIV VL", "setting": "[1]; visit 5A (day 7)", "value": "LOQ (LOQ = “detectable” not quantifiable HIV RNA<20 c/mL) and LOD (5×)"}, {"measurement": "HIV VL", "setting": "[1]; visit 5B (day 7 + 4 h)", "value": "21 HIV RNA copies/mL plasma and LOD (3×) and 54 HIV RNA copies/mL plasma and LOQ (LOQ = “detectable” not quantifiable HIV RNA<20 c/mL)"}, {"measurement": "HIV VL", "setting": "[1]; visit 6 (day 10)", "value": "59 HIV RNA copies/mL plasma and 74 HIV RNA copies/mL plasma and LOQ (LOQ = “detectable” not quantifiable HIV RNA<20 c/mL) and LOD and 46 HIV RNA copies/mL plasma and 103 HIV RNA copies/mL plasma"}, {"measurement": "HIV VL", "setting": "[1]; visit 7A (day 14)", "value": "LOD (5×) and LOQ (LOQ = “detectable” not quantifiable HIV RNA<20 c/mL)"}, {"measurement": "HIV VL", "setting": "[1]; visit 7B (day 14 + 4 h)", "value": "LOQ (LOQ = “detectable” not quantifiable HIV RNA<20 c/mL) and LOD (5×)"}, {"measurement": "HIV VL", "setting": "[1]; visit 9 (day 21)", "value": "LOQ (LOQ = “detectable” not quantifiable HIV RNA<20 c/mL) (3×) and LOD (3×)"}, {"measurement": "HIV VL", "setting": "[1]; visit 10 (day 56)", "value": "LOD (3×) and 42 HIV RNA copies/mL plasma and LOQ (LOQ = “detectable” not quantifiable HIV RNA<20 c/mL) (2×)"}, {"measurement": "HIV VL", "setting": "[1]; visit 11 (day 84)", "value": "LOQ (LOQ = “detectable” not quantifiable HIV RNA<20 c/mL) and LOD (4×) and 68 HIV RNA copies/mL plasma"}, {"measurement": "HIV VL", "setting": "[1]; visit V8 (day 17)", "value": "22 HIV RNA copies/mL plasma and LOD (2×) and LOQ (LOQ = “detectable” not quantifiable HIV RNA<20 c/mL) and 119 HIV RNA copies/mL plasma"}, {"measurement": "TMA assay, Percent positive", "setting": "[2]; Visit 1 (day −21, pre-treatment)", "value": 50, "unit": "%"}, {"measurement": "TMA assay, Percent positive", "setting": "[2]; Visit 2A (day 0, pre-treatment)", "value": 50, "unit": "%"}, {"measurement": "TMA assay, Percent positive", "setting": "[2]; Visit 2B (day 0 + 4 h)", "value": 67, "unit": "%"}, {"measurement": "TMA assay, Percent positive", "setting": "[2]; Visit 3 (day 1)", "value": 83, "unit": "%"}, {"measurement": "TMA assay, Percent positive", "setting": "[2]; Visit 4 (day 3)", "value": 83, "unit": "%"}, {"measurement": "TMA assay, Percent positive", "setting": "[2]; Visit 5A (day 7)", "value": 50, "unit": "%"}, {"measurement": "TMA assay, Percent positive", "setting": "[2]; Visit 5B (day 7 + 4 h)", "value": 100, "unit": "%"}, {"measurement": "TMA assay, Percent positive", "setting": "[2]; Visit 6 (day 10)", "value": 100, "unit": "%"}, {"measurement": "TMA assay, Percent positive", "setting": "[2]; Visit 7A (day 14)", "value": 50, "unit": "%"}, {"measurement": "TMA assay, Percent positive", "setting": "[2]; Visit 7B (day 14 + 4 h)", "value": 67, "unit": "%"}, {"measurement": "TMA assay, Percent positive", "setting": "[2]; Visit 8 (day 17)", "value": 100, "unit": "%"}, {"measurement": "TMA assay, Percent positive", "setting": "[2]; Visit 9 (day 21)", "value": 33, "unit": "%"}, {"measurement": "Plasma HIV-1 RNA detection by transcription-mediated amplification assay", "setting": "[2]; post-infusion time-points compared with baseline", "value": "detected more frequently"}, {"measurement": "TMA assay, presence of HIV RNA", "setting": "[2]; [3]", "value": "1 (3×) and 0 (3×)"}, {"measurement": "TMA assay, presence of HIV RNA", "setting": "[2]; [4]", "value": "1 (3×) and 0 (3×)"}, {"measurement": "TMA assay, presence of HIV RNA", "setting": "[2]; visit 2B (day 0 + 4 h)", "value": "1 (4×) and 0 (2×)"}, {"measurement": "TMA assay, presence of HIV RNA", "setting": "[2]; visit 3 (day 1)", "value": "1 (5×) and 0"}, {"measurement": "TMA assay, presence of HIV RNA", "setting": "[2]; visit 4 (day 3)", "value": "1 (5×) and 0"}, {"measurement": "TMA assay, presence of HIV RNA", "setting": "[2]; visit 5A (day 7)", "value": "1 (3×) and 0 (3×)"}]}]}
